Paper PMC4841544, “Molecular Basis of Ligand-Dependent Regulation of NadR, the Transcriptional Repressor of Meningococcal Virulence Factor NadA” (PLoS Pathogens, 2016)

Legend:
Assay type in all cases: binding
[1] = target: T1, NadR (Neisseria adhesin A Regulator) (Neisseria meningitidis, UniProt Q7DD70); assay: SPR steady-state; DSC (ΔTm […] °C); design: gene NMB1843; NadR residues M1-S146, His-tag removed by thrombin (149 residues)
[2] = target: T1, NadR (Neisseria adhesin A Regulator); assay: SPR steady-state; DSC (ΔTm […] °C); design: gene NMB1843; NadR residues M1-S146, His-tag removed by thrombin (149 residues); remark: listed apart in the source
[3] = target: T1, NadR (Neisseria adhesin A Regulator); assay: SPR steady-state; DSC; 1H-15N TROSY-HSQC NMR; design: gene NMB1843; NadR residues M1-S146, His-tag removed by thrombin (149 residues); SeMet derivative for the crystal

T1 sequence (Q7DD70 entry or part of it): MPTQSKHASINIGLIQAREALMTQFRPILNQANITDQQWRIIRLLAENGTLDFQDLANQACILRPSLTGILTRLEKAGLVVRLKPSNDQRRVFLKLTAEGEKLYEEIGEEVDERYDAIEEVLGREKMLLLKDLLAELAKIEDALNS

**Q.** How did the Kd [1] turn out when `O=C(O)Cc1cccc(O)c1` [3-HPA] was run?
**A.** 2700 ± 100 µM

**Q.** For `O=C(O)Cc1ccc(O)c(Cl)c1` [3Cl,4-HPA], which Kd [2] is on record?
**A.** 1100 ± 100 µM

**Q.** For `O=C(O)Cc1ccc(O)cc1` [4-HPA, 4-hydroxyphenylacetate], which Kd [3] is on record?
**A.** 1500 ± 100 µM
